This note sets out measurements from patent US20170022242A1, “NOVEL ANTIVIRAL AND ANTITUMORAL COMPOUNDS” (KATHOLIEKE UNIVERSITEIT LEUVEN, KU LEUVEN R&D, priority 2014, published 2017).

Where two headings read alike, the source gives them in different places.

One series has as its system HCV1b/Con1 replicon. Briefly: HCV replicon antiviral evaluation assay (Luc reporter). Format: cell-based. To be noted: concentration inhibiting HCV replicon by 50%, Huh7 ET cells, 72 hr.
Series [1] is described as follows: Cytotoxicity, CytoTox-1 cell proliferation assay of cell numbers. To be noted: human.
Series [2] relates to ET (luc-ubi-neo/ET) Huh7 human hepatoma cell line. The description is as above. The following applies: concentration decreasing cell viability by 50%; Huh7 ET cells, 72 hr; Table 1.
Series [3] has the same test system.
Setting [4] is: Hepatitis C virus, Table 1, 2′-C-methyl nucleoside phosphoramidates.
The mark [5] stands for this setting: Table 1, 2′-C-methyl nucleoside phosphoramidates.

The compound `C[C@@]1(O)[C@H](O)[C@@H](CO)O[C@H]1n1ccc(N)nc1=O` [Cmpd 4, 2′-C-methylcytidine, reference compound] registered a 50% effective concentration (EC50) in the series with HCV1b/Con1 replicon (setting [4]) of 1.34 µM. In series [1], this compound came in with a CC50 at 72 h of over 100 µM.
For `C[C@@]1(O)[C@H](O)[C@@H](CO)O[C@H]1n1ccc(=O)[nH]c1=O` [Cmpd 5, 2′-C-methyluridine, reference compound] the same measures were 6.31 µM and over 100 µM.
With `COC(=O)C[C@H](NP(=O)(OCC1OC(n2ccc(N)nc2=O)C(C)(O)C1O)Oc1ccccc1)C(=O)OC` (stereo partly drawn) [Cmpd 16a, 2′-C-methylcytidine-5′-[phenyl-bis(methoxy-aspartyl)]phosphate], in the series with HCV1b/Con1 replicon (setting [5]), the EC50 stood at 3.71 µM. In addition, in series [2], the half-maximal cytotoxic concentration (CC50) is over 100 µM.
For `COC(=O)[C@H](CC(=O)OCc1ccccc1)NP(=O)(OCC1OC(n2ccc(N)nc2=O)C(C)(O)C1O)Oc1ccccc1` (stereo partly drawn) [Cmpd 16b, 2′-C-methylcytidine-5′-[phenyl-(α-methoxy-β-benzyloxy-aspartyl)]phosphate] the same measures were 1.32 µM and over 100 µM.
For `CC(C)OC(=O)C[C@H](NP(=O)(OCC1OC(n2ccc(N)nc2=O)C(C)(O)C1O)Oc1ccccc1)C(=O)OC(C)C` (stereo partly drawn) [Cmpd 16c, 2′-C-Methylcytidine-5′-[1-phenyl-bis(isopropyl-aspartyl)]phosphate], in that order: 0.96 µM and over 100 µM.
For `CCCCOC(=O)C[C@H](NP(=O)(OC[C@H]1O[C@@H](n2ccc(N)nc2=O)[C@](C)(O)[C@@H]1O)Oc1ccccc1)C(=O)OCCCC` (stereo partly drawn) [Cmpd 16d, 2′-C-Methylcytidine-5′-[phenyl-bis(n-butyl-aspartyl)]phosphate] the same measures were 0.26 µM and 30.9 µM.
In the case of `CCCCCOC(=O)C[C@H](NP(=O)(OCC1OC(n2ccc(N)nc2=O)C(C)(O)C1O)Oc1ccccc1)C(=O)OCCCCC` (stereo partly drawn) [Cmpd 16e, 2′-C-Methyl-cytidine-5′-[phenyl-bis(amyl-aspartyl)]phosphate], in the series with HCV1b/Con1 replicon (setting [5]), the midpoint of the response, the EC50, lay at 0.05 µM. Besides, it took 9.53 µM to reach half-maximal cytotoxicity in series [3] (CC50).
For the compound `CC(C)CCOC(=O)C[C@H](NP(=O)(OCC1OC(n2ccc(N)nc2=O)C(C)(O)C1O)Oc1ccccc1)C(=O)OCCC(C)C` (stereo partly drawn) [Cmpd 16f, 2′-C-Methylcytidine-5′-[phenyl-bis(isoamyl-aspartyl)]phosphate], the concentration giving a half-maximal response (EC50) in the series on HCV1b/Con1 replicon (setting [5]) was determined as 0.05 µM. Further, the half-maximal cytotoxic concentration (CC50) in series [2] came out at 9.54 µM.
In turn, `COC(=O)C[C@H](NP(=O)(OCC1OC(n2ccc(=O)[nH]c2=O)C(C)(O)C1O)Oc1ccccc1)C(=O)OC` (stereo partly drawn) [Cmpd 17a, 2′-C-methyluridine-5′-[phenyl-bis(methoxy-aspartyl)]phosphate] registered an EC50 in the series on HCV1b/Con1 replicon (setting [5]) of 1.13 µM. This compound returned a CC50 in series [2] of over 100 µM.
In the series on HCV1b/Con1 replicon (setting [5]), `COC(=O)[C@H](CC(=O)OCc1ccccc1)NP(=O)(OCC1OC(n2ccc(=O)[nH]c2=O)C(C)(O)C1O)Oc1ccccc1` (stereo partly drawn) [Cmpd 17b, 2′-C-methyluridine-5′-[phenyl-(α-methoxy-β-benzyloxy-aspartyl)]phosphate] registered a half-maximal effective concentration (EC50) of 0.26 µM. The compound further displayed a cytotoxic concentration (CC50) in series [2] of 43.4 µM.
Compound `CC(C)OC(=O)C[C@H](NP(=O)(OCC1OC(n2ccc(=O)[nH]c2=O)C(C)(O)C1O)Oc1ccccc1)C(=O)OC(C)C` (stereo partly drawn) [Cmpd 17c, 2′-C-Methyl-uridine-5′-[1-phenyl-bis(isopropyl-aspartyl)]phosphate] came in with a concentration for a half-maximal effect (EC50) in the series with HCV1b/Con1 replicon (setting [5]) of 0.29 µM. Moreover, in series [3], the half-maximal cytotoxic concentration (CC50) was 35.7 µM.
For `CCCCOC(=O)C[C@H](NP(=O)(OCC1OC(n2ccc(=O)[nH]c2=O)C(C)(O)C1O)Oc1ccccc1)C(=O)OCCCC` (stereo partly drawn) [Cmpd 17d, 2′-C-Methyl-uridine-5′-[phenyl-bis(n-butyl-aspartyl)]phosphate], in that order: 0.04 µM and 4.64 µM.
In the series on HCV1b/Con1 replicon (setting [5]), `CCCCCOC(=O)C[C@H](NP(=O)(OCC1OC(n2ccc(=O)[nH]c2=O)C(C)(O)C1O)Oc1ccccc1)C(=O)OCCCCC` (stereo partly drawn) [Cmpd 17e, 2′-C-Methyl-uridine-5′-[phenyl-bis(amyl-aspartyl)]phosphate] returned a concentration giving a half-maximal response (EC50) of 0.03 µM. Besides, the CC50 in series [3] came to 7.11 µM.
For `CC(C)CCOC(=O)C[C@H](NP(=O)(OCC1OC(n2ccc(=O)[nH]c2=O)C(C)(O)C1O)Oc1ccccc1)C(=O)OCCC(C)C` (stereo partly drawn) [Cmpd 17f, 2′-C-Methyl-uridine-5′-[phenyl-bis(isoamyl-aspartyl)]phosphate], in that order: 0.03 µM and 10 µM.
The compound `C[C@@]1(F)[C@H](O)[C@@H](CO)O[C@H]1n1ccc(=O)[nH]c1=O` [Cmpd 22, 2′-deoxy-2′-fluoro-2′-C-methyluridine, reference compound] showed an EC50 in the series on HCV1b/Con1 replicon (Hepatitis C virus, Table 2, 2′-F-nucleoside phosphoramidates) of over 100 µM. In series [1], the CC50 at 72 h is over 100 µM.
Consider `CC(C)CCOC(=O)C[C@H](NP(=O)(OCC1OC(n2ccc(=O)[nH]c2=O)C(C)(F)C1O)Oc1ccccc1)C(=O)OCCC(C)C` (stereo partly drawn) [Cmpd 23a, 2′-Deoxy-2′-fluoro-2′-C-methyl-uridine-5′-[phenyl-bis(isoamyl-aspartyl)]phosphate], for which the response in the series with HCV1b/Con1 replicon (Table 2, 2′-F-nucleoside phosphoramidates) was half-maximal at 0.06 µM (EC50). This compound also registered a CC50 in series [3] of 27.7 µM.
As for `CC(C)CCOC(=O)C[C@H](NP(=O)(OCC1OC(n2ccc(=O)[nH]c2=O)C(C)(F)C1O)Oc1ccccc1)C(=O)OCCC(C)C` (stereo partly drawn) [Mixture 23a/23b, 2′-Deoxy-2′-fluoro-2′-C-methyl-uridine-5′-[phenyl-bis(isoamyl-aspartyl)]phosphate], the CC50 in series [3] turned out to be 33.1 µM.
